Assay results taken from ChEMBL document CHEMBL5360594, “Astellolides R-W, Drimane-Type Sesquiterpenoids from an Aspergillus parasiticus Strain Associated with an Isopod” (J Nat Prod, 2023).

Legend:
[1] = test system: A549; assay: Cytotoxicity against human A549 cells assessed as inhibition of cell growth at 20 uM incubated for 48 hrs by MTT assay; format: toxicity, cell-based; conditions: a549, 48 h
[2] = test system: CAL-62; assay: Cytotoxicity against human CAL-62 cells assessed as inhibition of cell growth at 20 uM incubated for 48 hrs by MTT assay; format: toxicity, cell-based; conditions: cal-62, 48 h
[3] = test system: K562; assay: Cytotoxicity against human K562 cells assessed as inhibition of cell growth at 20 uM incubated for 48 hrs by MTT assay; format: toxicity, cell-based; conditions: k562, 48 h
[4] = test system: HepG2; assay: Cytotoxicity against human HepG2 cells assessed as inhibition of cell growth at 20 uM incubated for 48 hrs by MTT assay; format: toxicity, cell-based; conditions: hepg2, 48 h
[5] = test system: 5637; assay: Cytotoxicity against human 5637 cells assessed as inhibition of cell growth at 20 uM incubated for 48 hrs by MTT assay; format: toxicity, cell-based; conditions: human, 5637, 48 h
[6] = test system: RAW264.7; assay: Antiinflammatory activity in mouse RAW264.7 cells assessed as inhibition of LPS-induced NO production preincubated with compound for 30 mins followed by LPS-stimulation and measured after 24 hrs by Griess assay; format: functional, cell-based
[7] = test system: MKN-45; assay: Cytotoxicity against human MKN-45 cells assessed as inhibition of cell growth at 20 uM incubated for 48 hrs by MTT assay; format: toxicity, cell-based; conditions: mkn-45, 48 h
[8] = test system: HCT-116; assay: Cytotoxicity against human HCT-116 cells assessed as inhibition of cell growth at 20 uM incubated for 48 hrs by MTT assay; format: toxicity, cell-based; conditions: hct-116, 48 h
[9] = test system: MCF7; assay: Cytotoxicity against human MCF7 cells assessed as inhibition of cell growth at 20 uM incubated for 48 hrs by MTT assay; format: toxicity, cell-based; conditions: mcf7, 48 h
[10] = test system: RAW264.7; assay: Cytotoxicity against mouse RAW264.7 cells assessed as inhibition of cell growth at 30 uM; format: toxicity, cell-based; conditions: raw264.7, 30 µM
[11] = test system: HeLa; assay: Cytotoxicity against human HeLa cells assessed as inhibition of cell growth at 20 uM incubated for 48 hrs by MTT assay; format: toxicity, cell-based

For `CC(=O)OC[C@@]1(C)CCC[C@]2(COC(C)=O)C3=C(C[C@@H](OC(=O)c4cccnc4)[C@@H]12)C(=O)OC3`, the Activity [1] was “Non-Toxic”, the Activity [2] was “Non-Toxic” and the Activity [3] was “Non-Toxic”. For the same compound, the Activity [4] was “Non-Toxic”, the Activity [5] was “Non-Toxic” and the IC50 [6] was 19 µM. The Activity [7] was “Non-Toxic”, the Activity [8] was “Non-Toxic” and the Activity [9] was “Non-Toxic”. For the same compound, the Activity [10] was “Non-Toxic” and the Activity [11] was “Non-Toxic”.

For `C[C@]1(CO)CCC[C@]2(CO)C3=C(CC[C@@H]12)C(=O)OC3`, the Activity [1] was “Non-Toxic”, the Activity [2] was “Non-Toxic” and the Activity [3] was “Non-Toxic”. The Activity [4] was “Non-Toxic”, the Activity [5] was “Non-Toxic” and the IC50 [6] was 21 µM. The Activity [7] was “Non-Toxic”, the Activity [8] was “Non-Toxic” and the Activity [9] was “Non-Toxic”. The Activity [10] was “Non-Toxic” and the Activity [11] was “Non-Toxic”.

In the case of `C[C@]1(CO)CC[C@@H](O)[C@]2(C)C3=C(CC[C@@H]12)C(=O)OC3`, the Activity [1] is reported as “Non-Toxic”, the Activity [2] is reported as “Non-Toxic” and the Activity [3] is reported as “Non-Toxic”. For the same compound, the Activity [4] was “Non-Toxic”, the Activity [5] was “Non-Toxic” and the IC50 [6] was 6.1 µM. The Activity [7] was “Non-Toxic”, the Activity [8] was “Non-Toxic” and the Activity [9] was “Non-Toxic”. For the same compound, the Activity [10] was “Non-Toxic” and the Activity [11] was “Non-Toxic”.

With `C[C@@H]1C[C@H]2[C@@H]3CCC4=CC(=O)C=C[C@]4(C)[C@@]3(F)[C@@H](O)C[C@]2(C)[C@@]1(O)C(=O)CO` [DEXAMETHASONE] the IC50 [6] was 2.6 µM.

With `CC(=O)OC[C@]12CCCC(C)(C)[C@@H]1[C@H](OC(=O)c1ccccc1)CC1=C2COC1=O` the Activity [1] was “Non-Toxic”, the Activity [2] was “Non-Toxic” and the Activity [3] was “Non-Toxic”. For the same compound, the Activity [4] was “Non-Toxic”, the Activity [5] was “Non-Toxic” and the IC50 [6] was 6.8 µM. For the same compound, the Activity [7] was “Non-Toxic”, the Activity [8] was “Non-Toxic” and the Activity [9] was “Non-Toxic”. The Activity [10] was “Non-Toxic” and the Activity [11] was “Non-Toxic”.

`CC12CCCC34C5=C(CC(O[C@@H]3OC1)C24)C(=O)OC5` was tested, and the Activity [1] was “Non-Toxic”, the Activity [2] was “Non-Toxic” and the Activity [3] was “Non-Toxic”. The Activity [4] was “Non-Toxic”, the Activity [5] was “Non-Toxic” and the IC50 [6] was 22 µM. For the same compound, the Activity [7] was “Non-Toxic”, the Activity [8] was “Non-Toxic” and the Activity [9] was “Non-Toxic”. The Activity [10] was “Non-Toxic” and the Activity [11] was “Non-Toxic”.
